Values after ≈ are worked out from the molar mass of the structure shown. Non-standard residues stand in square brackets, D forms with d. Residues, ends and D or L forms follow the SMILES beside them. 2Nal = N[C@@H](Cc1ccc2ccccc2c1)C(=O)O; hLeu = CC(C)CC[C@H](N)C(=O)O; Nle = CCCC[C@H](N)C(=O)O; Nva = CCC[C@H](N)C(=O)O
Legend:
[1] = test system: Staphylococcus aureus (NRS 384); assay: microbe, parasite or virus in culture; format: cell-based; conditions: NRS 384
Description: According to the Standards of Clinical and Laboratory Standards Institute (CLSI) of the USA for antimicrobial drug susceptibility test operation standards, a micronutrient serial twofold dilution method was used to determine minimum inhibitory concentrations (MICs) of all 60 peptides (S/N: LV-1˜LV-60) against Staphylococcus aureus (NRS 384). The experiment was repeated 5 times in parallel. […] An antibacterial drug Levofloxacin and an AMP Cbf-K16 (sequence of Cbf-K16: […]) were used as positive controls to evaluate the antibacterial effect of the antimicrobial peptides on Staphylococcus aureus (NRS 384).

rabbit red blood cells = format: cell-based; conditions: red cells of rabbit, 1 h
Description: Fresh rabbit blood ([…]) was collected and centrifuged at 500 g for 5 min, a supernatant was discarded, and red blood cells were repeatedly washed with phosphate-buffered saline (PBS, 0.01 M, pH 7.4) until the supernatant was clear. The red blood cells (RBCs) were resuspended to 10 mL, and diluted 25-fold with PBS (0.01 M, pH 7.4) to prepare a red blood cell suspension with a concentration of about 2×10^8 RBC/mL. The AMPs were subjected to gradient dilution with normal saline (0.85%, w/v, NaCl) according to a multiple dilution method, final concentrations of the SMPs were 1.95, 3.9, 7.8, 15.6, 31.3, 62.5, 125, 250, 500, 1000, and 2000 μg/mL. 100 μl of polypeptide solution was taken and added to a 96-well plate with 5 replicates for each concentration; 100 μl of rabbit blood with a red blood cell count of about 2×10^8 RBC/mL was then added to each well, the plate was incubated at 37° C. for 1 h, centrifuged at 500 g for 5 min, 100 μl of supernatant was taken and transferred to a new 96-well plate, and an optical density (OD) at a wavelength of 541 nm was measured using a microplate reader. Triton X-100 (10 mg/mL as a starting concentration, two-fold gradient dilution) was used as a positive control group. A hemolysis rate was calculated using the following formula: Hemolysis rate (%)=[(OD541 of experimental group-OD541 of negative control group)/(OD541 of positive control group−OD541 of negative control group)]×100% Specific results of the hemolysis test are shown in Table 6. Minimum hemolytic concentration (MHC): a lowest drug concentration that can cause 10% hemolysis.

| MIC against Staphylococcus aureus (NRS 384) [1] [µg/mL] | Compound | MHC (minimum hemolytic concentration, lowest concentration causing 10% hemolysis) (rabbit red blood cells) [µg/mL] |
| --- | --- | --- |
| 4 (≈ 2.43 µM) | CC(=O)N[C@@H](CCCNC(=N)N)C(=O)N[C@@H](CCCCN)C(=O)N[C@@H](CC(C)C)C(=O)N[C@@H](CC(C)C)C(=O)N[C@@H](Cc1ccc2ccccc2c1)C(=O)N[C@@H](CCCNC(=N)N)C(=O)N[C@@H](CC(C)C)C(=O)N[C@@H](CCCCN)C(=O)N[C@@H](Cc1ccc2ccccc2c1)C(=O)N[C@@H](CCCNC(=N)N)C(=O)N[C@@H](CCCCN)C(N)=O [LV-50] (Ac-RKLL[2Nal]RLK[2Nal]RK-NH2) | >1000 |
| 4 (≈ 2.39 µM) | CC(=O)N[C@@H](CCCNC(=N)N)C(=O)N[C@@H](CCCNC(=N)N)C(=O)N[C@@H](CC(C)C)C(=O)N[C@@H](CC(C)C)C(=O)N[C@@H](Cc1ccc2ccccc2c1)C(=O)N[C@@H](CCCNC(=N)N)C(=O)N[C@@H](CC(C)C)C(=O)N[C@@H](CCCCN)C(=O)N[C@@H](Cc1ccc2ccccc2c1)C(=O)N[C@@H](CCCNC(=N)N)C(=O)N[C@@H](CCCCN)C(N)=O [LV-51] (Ac-RRLL[2Nal]RLK[2Nal]RK-NH2) | >1000 |
| 8 (≈ 4.78 µM) | CC(=O)N[C@@H](CCCNC(=N)N)C(=O)N[C@@H](CCCCN)C(=O)N[C@@H](CC(C)C)C(=O)N[C@@H](CC(C)C)C(=O)N[C@@H](Cc1ccc2ccccc2c1)C(=O)N[C@@H](CCCNC(=N)N)C(=O)N[C@@H](CC(C)C)C(=O)N[C@@H](CCCCN)C(=O)N[C@@H](Cc1ccc2ccccc2c1)C(=O)N[C@@H](CCCNC(=N)N)C(=O)N[C@@H](CCCNC(=N)N)C(N)=O [LV-52] (Ac-RKLL[2Nal]RLK[2Nal]RR-NH2) | >1000 |
| 4 (≈ 2.47 µM) | CC(=O)N[C@@H](CCCCN)C(=O)N[C@@H](CCCNC(=N)N)C(=O)N[C@@H](CC(C)C)C(=O)N[C@@H](CC(C)C)C(=O)N[C@@H](Cc1ccc2ccccc2c1)C(=O)N[C@@H](CCCCN)C(=O)N[C@@H](CC(C)C)C(=O)N[C@@H](CCCCN)C(=O)N[C@@H](Cc1ccc2ccccc2c1)C(=O)N[C@@H](CCCCN)C(=O)N[C@@H](CCCNC(=N)N)C(N)=O [LV-53] (Ac-KRLL[2Nal]KLK[2Nal]KR-NH2) | >1000 |

More lines, now with the values behind:

| Compound | MIC against Staphylococcus aureus (NRS 384) [1] [µg/mL] | MHC (minimum hemolytic concentration, lowest concentration causing 10% hemolysis) (rabbit red blood cells) [µg/mL] |
| --- | --- | --- |
| CCCC[C@H](NC(=O)[C@H](CCCCN)NC(=O)[C@H](CCCNC(=N)N)NC(C)=O)C(=O)N[C@@H](CCCC)C(=O)N[C@@H](Cc1ccc2ccccc2c1)C(=O)N[C@@H](CCCNC(=N)N)C(=O)N[C@@H](CCCC)C(=O)N[C@@H](CCCCN)C(=O)N[C@@H](Cc1ccc2ccccc2c1)C(=O)N[C@@H](CCCNC(=N)N)C(=O)N[C@@H](CCCCN)C(N)=O [LV-42] (Ac-RK[Nle][Nle][2Nal]R[Nle]K[2Nal]RK-NH2) | 8 (≈ 4.86 µM) | >1000 |
| CCC[C@H](NC(=O)[C@H](CCCCN)NC(=O)[C@H](CCCNC(=N)N)NC(C)=O)C(=O)N[C@@H](CCC)C(=O)N[C@@H](Cc1ccc2ccccc2c1)C(=O)N[C@@H](CCCNC(=N)N)C(=O)N[C@@H](CCC)C(=O)N[C@@H](CCCCN)C(=O)N[C@@H](Cc1ccc2ccccc2c1)C(=O)N[C@@H](CCCNC(=N)N)C(=O)N[C@@H](CCCCN)C(N)=O [LV-43] (Ac-RK[Nva][Nva][2Nal]R[Nva]K[2Nal]RK-NH2) | 8 (≈ 4.99 µM) | >1000 |
| CC(=O)N[C@@H](CCCNC(=N)N)C(=O)N[C@@H](CCCCN)C(=O)N[C@@H](CCC(C)C)C(=O)N[C@@H](CCC(C)C)C(=O)N[C@@H](Cc1ccc2ccccc2c1)C(=O)N[C@@H](CCCNC(=N)N)C(=O)N[C@@H](CCC(C)C)C(=O)N[C@@H](CCCCN)C(=O)N[C@@H](Cc1ccc2ccccc2c1)C(=O)N[C@@H](CCCNC(=N)N)C(=O)N[C@@H](CCCCN)C(N)=O [LV-44] (Ac-RK[hLeu][hLeu][2Nal]R[hLeu]K[2Nal]RK-NH2) | 8 (≈ 4.74 µM) | >1000 |
| CC(=O)N[C@@H](CCCNC(=N)N)C(=O)N[C@@H](CCCCN)C(=O)N[C@@H](C)C(=O)N[C@@H](C)C(=O)N[C@@H](Cc1ccc2ccccc2c1)C(=O)N[C@@H](CCCNC(=N)N)C(=O)N[C@@H](C)C(=O)N[C@@H](CCCCN)C(=O)N[C@@H](Cc1ccc2ccccc2c1)C(=O)N[C@@H](CCCNC(=N)N)C(=O)N[C@@H](CCCCN)C(N)=O [LV-45] (Ac-RKAA[2Nal]RAK[2Nal]RK-NH2) | 2 (≈ 1.32 µM) | >1000 |
| CC(=O)N[C@@H](CCCNC(=N)N)C(=O)N[C@@H](CCCCN)C(=O)N[C@H](C(=O)N[C@H](C(=O)N[C@@H](Cc1ccc2ccccc2c1)C(=O)N[C@@H](CCCNC(=N)N)C(=O)N[C@H](C(=O)N[C@@H](CCCCN)C(=O)N[C@@H](Cc1ccc2ccccc2c1)C(=O)N[C@@H](CCCNC(=N)N)C(=O)N[C@@H](CCCCN)C(N)=O)C(C)C)C(C)C)C(C)C [LV-46] (Ac-RKVV[2Nal]RVK[2Nal]RK-NH2) | 4 (≈ 2.49 µM) | >1000 |
| CC(=O)N[C@@H](CCCCN)C(=O)N[C@@H](CCCCN)C(=O)N[C@@H](CC(C)C)C(=O)N[C@@H](CC(C)C)C(=O)N[C@@H](Cc1ccc2ccccc2c1)C(=O)N[C@@H](CCCCN)C(=O)N[C@@H](CC(C)C)C(=O)N[C@@H](CCCCN)C(=O)N[C@@H](Cc1ccc2ccccc2c1)C(=O)N[C@@H](CCCCN)C(=O)N[C@@H](CCCCN)C(N)=O [LV-47] (Ac-KKLL[2Nal]KLK[2Nal]KK-NH2) | 2 (≈ 1.28 µM) | >1000 |
| CC(=O)N[C@@H](CCCNC(=N)N)C(=O)N[C@@H](CCCCN)C(=O)N[C@@H](CC(C)C)C(=O)N[C@@H](CC(C)C)C(=O)N[C@@H](Cc1ccc2ccccc2c1)C(=O)N[C@@H](CCCCN)C(=O)N[C@@H](CC(C)C)C(=O)N[C@@H](CCCCN)C(=O)N[C@@H](Cc1ccc2ccccc2c1)C(=O)N[C@@H](CCCCN)C(=O)N[C@@H](CCCNC(=N)N)C(N)=O [LV-48] (Ac-RKLL[2Nal]KLK[2Nal]KR-NH2) | 4 (≈ 2.47 µM) | >1000 |
| CC(=O)N[C@@H](CCCCN)C(=O)N[C@@H](CCCCN)C(=O)N[C@@H](CC(C)C)C(=O)N[C@@H](CC(C)C)C(=O)N[C@@H](Cc1ccc2ccccc2c1)C(=O)N[C@@H](CCCNC(=N)N)C(=O)N[C@@H](CC(C)C)C(=O)N[C@@H](CCCCN)C(=O)N[C@@H](Cc1ccc2ccccc2c1)C(=O)N[C@@H](CCCNC(=N)N)C(=O)N[C@@H](CCCCN)C(N)=O [LV-49] (Ac-KKLL[2Nal]RLK[2Nal]RK-NH2) | 8 (≈ 4.94 µM) | >1000 |
